Molecular target: Diacylglycerol kinase alpha (Homo sapiens, UniProt P23743)
Test: DGKα Biochemical Activity Assay
Procedure: Ten nanoliters of test compound dissolved in DMSO at various concentrations were dispensed into a 384-well low volume nonbinding service white plates (Corning #3824) using a Labcyte Echo instrument. Recombinant DGKα (Carna Biosciences) in assay buffer (5 μL in 50 mM MOPS [3-(N-morpholino) propanesulfonic acid], pH 7.2; 0.0025% Triton X-100; 1 mM dithiothreitol; 5 mM MgCl2, 200 μM ATP) was added to the compound-containing plate and was incubated for 15 minutes at 25° C. A substrate solution (5 μL in 1.7 mM 1,2-dioleoyl-sn-glycerol [18:1 DAG], 13.5 mM 1-palmitoyl-2-oleoyl-sn-glycero-3-phospho-L-serine [16:0-18:1 PS](POPS), 2 μM CaCl2, 100 mM Octylglucoside (OG), 1 mM DTT) (obtained from Carna Biosciences) diluted in DGK ALPHA assay buffer was then added to start the reaction. Final concentrations were 1 nM DGKα, 100 μM ATP, 1 μM calcium chloride, 0.85 mM 1,2-dioleoyl-sn-glycerol (18:1 DAG), 6.75 mM 1-palmitoyl-2-oleoyl-sn-glycero-3-phospho-L-serine (16:0-18:1 PS) (POPS), 1 μM CaCl2), 50 mM Octylglucoside (OG) and 5 mM MgCl2. The reaction mixture was incubated at 25° C. for 1 hour. ADP-Glo Reagent (10 μL, 10 mM Mg added) provided by the kit was added to each well and incubated at 25° C. for 40 minutes. Then, 20 μL of Kinase Detection Reagent was added and incubated at 25° C. for 40 minutes. Luciferase activity of each well was measured via luminescence on an Envision plate reader (PerkinElmer).

Diacylglycerol kinase alpha, sequence (P23743 whole entry): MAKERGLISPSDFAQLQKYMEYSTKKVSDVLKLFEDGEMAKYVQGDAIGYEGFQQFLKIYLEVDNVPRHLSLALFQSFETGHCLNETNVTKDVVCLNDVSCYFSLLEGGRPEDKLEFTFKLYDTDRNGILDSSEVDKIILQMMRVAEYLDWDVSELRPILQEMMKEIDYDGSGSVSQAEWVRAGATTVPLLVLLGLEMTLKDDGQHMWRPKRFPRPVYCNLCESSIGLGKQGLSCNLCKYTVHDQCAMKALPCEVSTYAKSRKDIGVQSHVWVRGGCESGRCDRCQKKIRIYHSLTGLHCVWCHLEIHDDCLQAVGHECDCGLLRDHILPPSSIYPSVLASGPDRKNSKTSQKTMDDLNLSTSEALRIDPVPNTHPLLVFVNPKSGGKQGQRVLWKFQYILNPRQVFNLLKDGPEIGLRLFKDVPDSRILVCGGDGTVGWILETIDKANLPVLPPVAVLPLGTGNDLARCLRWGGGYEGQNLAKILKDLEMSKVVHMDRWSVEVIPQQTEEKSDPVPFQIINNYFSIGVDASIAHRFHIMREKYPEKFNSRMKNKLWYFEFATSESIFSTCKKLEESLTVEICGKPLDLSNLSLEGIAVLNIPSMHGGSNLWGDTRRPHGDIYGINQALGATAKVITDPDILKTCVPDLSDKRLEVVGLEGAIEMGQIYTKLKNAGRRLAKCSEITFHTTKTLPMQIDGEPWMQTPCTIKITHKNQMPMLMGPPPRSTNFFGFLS

SMILES | IC50 [nM]
Cc1nnc2nc(N3CCCCc4c(C#CC(C)(C)C#N)cccc43)c3c(F)cncc3n12 [US11926628, Example 64] | 5.79
CCOc1ccc2c(N(C)c3cccc(-c4ccc(C5CC5)cc4)c3)nc3nncn3c2n1 [US11926628, Example 113] | 702
Cc1nnc2nc(N3CCCc4c(C#CC5(C(F)(F)F)CC5)cccc43)c3c(F)cncc3n12 [US11926628, Example 41] | 7.82

Second part, the molecule after the results:

IC50 [nM] | SMILES
61.5 | CN(c1cccc(C#CC(C)(C)C)c1)c1nc2nncn2c2cnccc12 [US11926628, Example 60]
375 | COc1ccc(-c2cccc(N(C)c3nc4nncn4c4nc(N(C)C)ccc34)c2)cn1 [US11926628, Example 111]
930 | CN(C)c1ccc2c(N(C)c3cccc(C#CC(C)(C)C)c3)nc3nncn3c2n1 [US11926628, Example 110]
66.7 | CN(C)c1ccc2c(N(C)c3cccc(-c4ccc(C5CC5)cc4)c3)nc3nncn3c2n1 [US11926628, Example 112]

From BindingDB's records for patent US11926628 (Gilead Sciences, 2024)
